Source: ChEMBL document CHEMBL1124893, “1,2,4-Triazolo[4,3-a]pyrazine derivatives with human renin inhibitory activity. 2. Synthesis, biological properties and molecular modeling of hydroxyethylene isostere derivatives” (J Med Chem, 1990)

molecular target: T1, Renin (Homo sapiens, UniProt P00797); test: Inhibition of human renin
T1 sequence (P00797 whole entry): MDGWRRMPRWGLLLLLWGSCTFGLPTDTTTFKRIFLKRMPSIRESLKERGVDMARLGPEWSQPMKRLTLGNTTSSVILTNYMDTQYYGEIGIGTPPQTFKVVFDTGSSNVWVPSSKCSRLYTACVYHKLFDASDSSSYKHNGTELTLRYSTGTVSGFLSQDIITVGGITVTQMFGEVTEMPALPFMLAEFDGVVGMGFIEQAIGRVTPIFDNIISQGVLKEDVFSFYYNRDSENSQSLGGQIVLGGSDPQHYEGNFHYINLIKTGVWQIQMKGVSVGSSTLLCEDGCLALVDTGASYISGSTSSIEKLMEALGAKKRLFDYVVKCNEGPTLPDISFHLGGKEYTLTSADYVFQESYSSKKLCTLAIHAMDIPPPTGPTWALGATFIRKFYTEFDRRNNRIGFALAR

Row | SMILES | IC50 [nM]
1 | CCCc1nc(-c2cccnc2)cn2c(C(Cc3cccnc3)C(=O)NC(CC3CCCCC3)C(O)CC(C(=O)NCCCCO)C(C)C)nnc12 (centres undefined) | 0.3
2 | CCCCNC(=O)C(CC(O)C(CC1CCCCC1)NC(=O)Cc1nnc2c(CC(C)C)nc(-c3ccccc3)cn12)C(C)C (centres undefined) | 30
3 | CCCc1nc(-c2cccnc2)cn2c(C(Cc3cccnc3)C(=O)NC(CC3CCCCC3)C(O)CC(C(=O)N3CCOCC3)C(C)C)nnc12 (centres undefined) | 64
4 | CCCCNC(=O)[C@@H](CC(O)C(CC1CCCCC1)NC(=O)Cc1nnc2c(CCC)nc(-c3cccnc3)cn12)C(C)C (some centres undefined) | 26
5 | CCCc1nc(-c2cccnc2)cn2c(C(Cc3cccnc3)C(=O)NC(CC3CCCCC3)C(O)CC(C(=O)NCCN3CCNCC3)C(C)C)nnc12 (centres undefined) | 0.6
6 | CCCCNC(=O)C(CC(O)C(CC1CCCCC1)NC(=O)C(Cc1cccnc1)c1nnc2c(CCC)nc(-c3cccnc3)cn12)C(C)C (centres undefined) | 0.2
7 | CCCc1nc(-c2cccnc2)cn2c(C(Cc3cccnc3)C(=O)NC(CC3CCCCC3)C(O)CC(C(=O)NCCN3CCOCC3)C(C)C)nnc12 (centres undefined) | 0.4
8 | CCCc1nc(-c2cccnc2)cn2c(C(Cc3cccnc3)C(=O)NC(CC3CCCCC3)C(O)CC(C(=O)NCCN)C(C)C)nnc12 (centres undefined) | 78
9 | CCCc1nc(-c2cccnc2)cn2c(C(Cc3cccnc3)C(=O)NC(CC3CCCCC3)C(O)CC(C(=O)NCCN(C)C)C(C)C)nnc12 (stereo in doubt; e) | 0.3

Next, values leading:

Row | IC50 [nM] | SMILES
10 | 41 | CCCCN(C)C(=O)C(CC(O)C(CC1CCCCC1)NC(=O)C(Cc1cccnc1)c1nnc2c(CCC)nc(-c3cccnc3)cn12)C(C)C (centres undefined)
11 | 2.7 | CCCCNC(=O)C(CC(O)C(CC1CCCCC1)NC(=O)Cc1nnc2c(CCC)nc(-c3cccnc3)cn12)C(C)C (centres undefined)
12 | 0.6 | CCCc1nc(-c2cccnc2)cn2c(C(Cc3cccnc3)C(=O)NC(CC3CCCCC3)C(O)CC(C(=O)NCc3ccccn3)C(C)C)nnc12 (centres undefined)
13 | 212 | CCCc1nc(-c2cccnc2)cn2c(C(Cc3cccnc3)C(=O)NC(CC3CCCCC3)C(O)CC(C(=O)N(C)CCN(C)C)C(C)C)nnc12 (centres undefined)
14 | 8.6 | CCCc1nc(-c2cccnc2)cn2c(C(Cc3cccnc3)C(=O)NC(CC3CCCCC3)C(O)CC(C(=O)NCCN(C)C)C(C)C)nnc12 (single isomer, unassigned; less polar)
